Assay results published in patent publication US7649013B2, “Methods of protecting against radiation injury” (priority 2003, dated 2010).

System: C57BL/6J inbred strain female mice
Experiment: Radiation-induced leukopenia after whole body irradiation, leukocyte count (Example 8)
Format: in vivo
Settings: for L % (percentage of lymphocytes) / M % (percentage of monocytes) / N % (percentage of neutrophils) / WBC: 40 mg/kg i.p. 0.5 hour before 8 Gy
Protocol: The effect of β-lapachone pre-treatment on radiation-induced leukopenia (e.g., radiation-induced neutropenia, monocytopenia, or lymphocytopenia, or subcombinations thereof) following whole body gamma irradiation in mice, with and without pretreatment with β-lapachone, is assessed as follows. β-lapachone is prepared at 10 mg/ml in 40% hydroxypropyl-beta-cyclodextrin (HPBCD). C57BL/6J inbred strain female mice (4-5 weeks old) are organized into three groups of six mice each: Group I mice receive no radiation, no β-lapachone, and no carrier; Group II mice receive radiation and are injected with carrier (40% HPBCD 4 ml/kg body weight); and Group III mice are injected intraperitoneally at 0.5 hour before irradiation with β-lapachone (40 mg/kg body weight). Whole body irradiation of animals with 8 Gy (lethal radiation) or 5 Gy (sublethal radiation) of γ-rays is carried out in air at room temperature in a gamma chamber (Gammacell 40 Exactor), with a dose-rate of 1.05 Gy/min. This radiation dose is within the range of equivalent human exposures predicted in many scenarios of radiologic or nuclear terrorist attack. Following irradiation, animals are maintained in a climate-controlled animal facility. Three mice in each of Groups I, II, and III are sacrificed on day five following irradiation, and an analysis of radiation-induced leukopenia is performed for each. The remaining mice are sacrificed on day eight following irradiation, and an analysis of radiation-induced leukopenia is performed for each. Leukocytes are counted automatically using a hemacytometer counter in the animal facility at MIT.

Compound: CC1(C)CCC2=C(O1)c1ccccc1C(=O)C2=O [β-lapachone, 3,4-dihydro-2,2-dimethyl-2H-naphtho[1,2-b]pyran-5,6-dione]
- L % (percentage of lymphocytes) (Day 5): 66.24%
- M % (percentage of monocytes) (Day 5): 8.13%
- N % (percentage of neutrophils) (Day 5): 19.1%
- WBC (Day 5): 0.53 ± 0.4 1000 cells/ml
- L % (percentage of lymphocytes) (Day 8): 52.69%
- M % (percentage of monocytes) (Day 8): 13.23%
- N % (percentage of neutrophils) (Day 8): 20.29%
- WBC (Day 8): 0.37 ± 0.24 1000 cells/ml
- Protection against radiation-induced neutropenia, monocytopenia, and lymphocytopenia (pretreatment, 8 Gy, day 5 and day 8, P<0.05): partially protects
